This note sets out measurements from patent publication US11591319B2, “Small molecule inducers of autophagy” (Board of Regents, The University of Texas System, priority 2018, dated 2023).

One may read the IC50 as the point on the concentration scale where inhibition reaches its midpoint.

This test concerns the target Beclin 1/Bcl-2 interaction (Homo sapiens (Human), UniProt P10415). As to the kind of experiment: Beclin 1/Bcl-2 AlphaLISA assay (dose-response). The format is binding. An excerpt: We also developed a high-throughput Beclin 1/Bcl-2 AlphaLISA assay to directly measure the in vitro interaction between Beclin 1 and Bcl-2. AlphaLISA is a bead-based proximity assay that is capable of measuring protein-protein interaction in homogeneous solution.^41 Oxygen singlet molecules are generated by Alpha donor beads upon irradiation at 680 nm and travel to acceptor beads in proximity. […] Thus, a measurable Alpha luminescence signal requires chemical energy transfer between the donor and acceptor beads, and a pair of interacting molecules immobilized on the beads stabilizes bead association to produce measurable Alpha signals.
We used purified recombinant Beclin 1 and Bcl-2 proteins for AlphaLISA, which were optimized for enhanced solubility and expression. Human Beclin 1 was expressed as a fusion protein with StrepII-SUMO at the N-terminus, and three residues on the aromatic finger of Beclin 1 were mutated (F359D/F360D/W361D) to improve solubility and protein stability.^42 These mutations are in the BARA domain, which is far from the BH3 motif recognized by Bcl-2. A recombinant Bcl-2-binding deficient mutant of Beclin 1 (StrepII-SUMO-Beclin 1^ΔBcl-2BD) was used as a negative control. […] For a normalization control, we included a parallel AlphaLISA assay with purified SUMO protein (with an N-terminal StrepII tag and a C-terminal 6xHis tag). The purpose of a normalization control is to eliminate inner filter (false-positive) hits that reduce luminescence signal by interfering with the AlphaLISA assay in ways that are unrelated to the Beclin 1/Bcl-2 interaction. With the normalization control, the interaction of Beclin 1 and Bcl-2 was measured as follows:
All AlphaLISA assays were performed in triplicate in a 384-well format with BB buffer (phosphate-buffered saline supplemented with 0.5% BSA and 1 mM DTT). For the Beclin 1/Bcl-2 AlphaLISA, purified StrepII-SUMO-Beclin 1 was incubated with Bcl-2-6xHis proteins at 300 nM and 60 nM, respectively. For internal control AlphaLISA assays, StrepII-SUMO-6xHis protein (internal control) was used at 20 nM. […] Following the initial incubation, Strep-Tactin Alpha donor (AS106D) and anti-6xHis AlphaLISA acceptor beads (AL128M) were added to a final concentration of 40 μg/mL each and incubated at room temperature in the dark for an additional 1 h. All samples were evaluated in triplicate. Alpha signals were measured by an Envision plate reader (Perkin Elmer). Beclin 1/Bcl-2 Alpha signal was normalized with internal control Alpha signal. The normalized value represents the binding activity of Beclin 1 and Bcl-2. The percent activity of a compound was calculated as the following formula: […]
Protein or peptide concentrations used in dose-response AlphaLISA experiments were as follows: Beclin1/Bcl-2—300 nM/60 nM; SUMO (internal control for Beclin 1/Bcl-2 AlphaLISA)—20 nM; Beclin 1 BH3/Bcl-2—1000 nM/60 nM; Bax BH3/Bcl-2—100 nM/20 nM; Biotin-6xHis (internal control for BH3/Bcl-2 AlphaLISA)—10
Background: Alpha assays give light when donor and acceptor beads are brought close together.

SMILES strings stand for the structures. A value given as a limit tells only on which side of the number the result lay.

Sequence of Beclin 1/Bcl-2 interaction (P10415 1-218): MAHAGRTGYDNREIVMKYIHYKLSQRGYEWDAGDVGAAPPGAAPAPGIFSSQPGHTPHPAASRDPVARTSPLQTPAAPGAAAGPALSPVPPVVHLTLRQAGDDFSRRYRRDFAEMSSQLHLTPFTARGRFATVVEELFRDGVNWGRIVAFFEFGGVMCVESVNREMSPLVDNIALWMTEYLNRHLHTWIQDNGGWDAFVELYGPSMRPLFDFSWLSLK

Turning to `Cc1ccc(C(=O)N2N=C(c3ccc(NS(C)(=O)=O)cc3)CC2c2ccc(Br)cc2)cc1` (centres unmarked) [lqr-8-267], the concentration for half-maximal inhibition (IC50) is 13900 nM.
As to `CC(C)(C)OC(=O)Nc1ccc(C2=NN(C(=O)c3ccc(Br)cc3)C(c3ccco3)C2)cc1` (centres unmarked) [lqr-8-231], the IC50 is 982 nM.
For the compound `CC(C)(C)OC(=O)Nc1ccc(C2=NN(C(=O)c3ccc(Br)cc3)C(c3ccoc3)C2)cc1` (centres unmarked) [lqr-9-048], 4100 nM corresponded to half-maximal inhibition (IC50).
`CS(=O)(=O)Nc1ccc(C2=NN(C(=O)c3ccc(C(F)(F)F)cc3)C(c3ccco3)C2)cc1` (centres unmarked) [lqr-8-189] showed an IC50 of 2790 nM.
In the case of `CC1=NN(C(=O)c2ccc(Br)cc2)C(c2ccccc2)C1` (centres unmarked) [Lqr-8-296] it was greater than 10000 nM; in that of `CC(C)(C)OC(=O)Nc1ccc(C2=NN(C(=O)c3ccc(Br)cc3)C(c3ccccn3)C2)cc1` (centres unmarked) [lqr-9-033], 455 nM; in that of `C=CCOC(=O)Nc1ccc(C2=NN(C(=O)c3ccc(Br)cc3)C(c3ccccc3)C2)cc1` (centres unmarked) [lqr-9-156], less than 156 nM.
In the case of `CS(=O)(=O)Nc1ccc(C2=NN(C(=O)c3ccc(Br)cc3)C(c3ccco3)C2)cc1` (centres unmarked) [lqr-8-186] it was 2420 nM; in that of `CNC(=O)Nc1ccc(C2=NN(C(=O)c3ccc(Br)cc3)C(c3ccccc3)C2)cc1` (centres unmarked) [lqr-9-121], 5520 nM; in that of `CC(C)(C)OC(=O)n1cccc1C1=NN(C(=O)c2ccc(Br)cc2)C(c2ccccc2)C1` (centres unmarked) [lqr-9-018], greater than 10000 nM.
In the case of `CCC1CC(c2ccc(NC(=O)OC(C)(C)C)cc2)=NN1C(=O)c1ccc(Br)cc1` (centres unmarked) [lqr-9-026], the half-inhibitory concentration (IC50) worked out at 13000 nM. In other words, the double-digit micromolar range.
In turn, `O=C(c1ccc(Br)cc1)N1N=C(c2ccc[nH]2)CC1c1ccccc1` (centres unmarked) [lqr-8-310] displayed an IC50 greater than 10000 nM.
With `CS(=O)(=O)Nc1ccc(C2=NN(C(=O)c3ccc(F)cc3)C(c3ccco3)C2)cc1` (centres unmarked) [lqr-8-183], the half-inhibitory concentration (IC50) stood at 12800 nM. That is a double-digit micromolar value.
In the case of `Cc1ccc(C(=O)N2N=C(c3ccc(NS(C)(=O)=O)cc3)CC2c2ccco2)cc1` (centres unmarked) [lqr-8-177] it was 16200 nM; in that of `CC(C)(C)OC(=O)Nc1ccc(-c2cc(-c3ccccc3)n(C(=O)c3ccc(Br)cc3)n2)cc1` [lqr-9-013], greater than 10000 nM.
Compound `CC(C)(C)OC(=O)Nc1ccc(C2=NN(C(=O)c3ccc(Br)cc3)C(c3cccnc3)C2)cc1` (centres unmarked) [lqr-9-044] yielded a half-inhibitory concentration (IC50) of 1800 nM.
In the case of `CC(C)(C)OC(=O)Nc1ccc(C2=NN(C(=O)c3ccc([N+](=O)[O-])cc3)C(c3ccco3)C2)cc1` (centres unmarked) [lqr-8-233] it was 1240 nM.
The compound `CC(C)(C)OC(=O)Nc1ccc(C2=NN(C(=O)c3ccc(Br)cc3)C(c3ccc(Br)o3)C2)cc1` (centres unmarked) [lqr-8-302] had a 50% inhibitory concentration (IC50) of 2680 nM.
Take `COc1ccc(C(=O)N2N=C(c3ccc(NS(C)(=O)=O)cc3)CC2c2ccco2)cc1` (centres unmarked) [lqr-8-185]: half-maximal inhibition (IC50) required 9900 nM.
`Cc1ccc(C(=O)N2N=C(c3ccc(NS(C)(=O)=O)cc3)CC2c2ccccc2)cc1` (centres unmarked) [lqr-8-238] displayed an IC50 of 905 nM.
On to `CS(=O)(=O)Nc1ccc(C2=NN(C(=O)c3ccc(Cl)cc3)C(c3ccco3)C2)cc1` (centres unmarked) [lqr-8-180], for which the IC50 stood at 2760 nM.
The compound `Cc1ccc(C(=O)N2N=C(c3ccc(NC(=O)OC(C)(C)C)cc3)CC2c2ccco2)cc1` (centres unmarked) [lqr-8-203] showed an IC50 of 2880 nM. This IC50 and that of the compound before are within 1.5-fold of each other.
The figure for `O=C(c1ccc(Br)cc1)N1N=C(c2ccco2)CC1c1ccccc1` (centres unmarked) [lqr-8-309] is greater than 10000 nM.
Consider `CS(=O)(=O)Nc1ccc(C2=NN(C(=O)c3ccc(I)cc3)C(c3ccco3)C2)cc1` (centres unmarked) [lqr-8-196], for which the midpoint of inhibition, the IC50, lay at 2140 nM.
Turning to `CS(=O)(=O)Nc1ccc(C2=NN(C(=O)c3ccc(C#N)cc3)C(c3ccco3)C2)cc1` (centres unmarked) [lqr-8-190], the IC50 was 7230 nM.
The figure for `Cc1ccc(C(=O)N2N=C(c3ccc(NS(C)(=O)=O)cc3)CC2c2ccc(C)cc2)cc1` (centres unmarked) [lqr-8-275] is 14200 nM; for `Cc1ccc(C(=O)N2N=C(c3ccc(NS(C)(=O)=O)cc3)CC2c2ccccc2Br)cc1` (centres unmarked) [lqr-8-269] it is 9830 nM; for `CC(C)(C)OC(=O)Nc1ccc(C2=NN(C(=O)c3ccc([N+](=O)[O-])cc3)C(c3ccccc3)C2)cc1` (centres unmarked) [lqr-8-279] it is 349 nM.
For `CCOC(=O)Nc1ccc(C2=NN(C(=O)c3ccc(Br)cc3)C(c3ccccc3)C2)cc1` (centres unmarked) [lqr-9-157], the IC50 is less than 156 nM.
The figure for `O=C(Nc1ccc(C2=NN(C(=O)c3ccc(Br)cc3)C(c3ccccc3)C2)cc1)OC1CC1` (centres unmarked) [lqr-9-161] is less than 156 nM.
Turning to `CS(=O)(=O)Nc1ccc(C2=NN(C(=O)c3ccc([N+](=O)[O-])cc3)C(c3ccco3)C2)cc1` (centres unmarked) [lqr-8-188], half-maximal inhibition (IC50) was put at 1680 nM. In other words, the single-digit micromolar range.
The compound `CC(C)NC(=O)Nc1ccc(C2=NN(C(=O)c3ccc(Br)cc3)C(c3ccccc3)C2)cc1` (centres unmarked) [lqr-9-076] registered a half-maximal inhibitory concentration (IC50) of 349 nM.
In the case of `CCNc1ccc(C2=NN(C(=O)c3ccc(C)cc3)C(c3ccco3)C2)cc1` (centres unmarked) [lqr-8-219] it was 29800 nM.
The compound `CC(C)(C)OC(=O)Nc1ccc(C2=NN(C(=O)c3ccc4c(c3)OCO4)C(c3ccccc3)C2)cc1` (centres unmarked) [Lqr-9-065] registered an IC50 of 6770 nM.
The figure for `CC(C)(C)OC(=O)Nc1ccc(C2=NN(C(=O)OC(C)(C)C)C(c3ccccc3)C2)cc1` (centres unmarked) [lqr-9-056] is greater than 10000 nM; for `CC(C)NC(=O)Nc1ccc(C2=NN(C(=O)c3ccc(Br)cc3)C(c3ccccc3)C2)cc1` (centres unmarked) [lqr-9-085] it is 63 nM.
In the case of `O=C=Nc1ccc(C2=NN(C(=O)c3ccc(Br)cc3)C(c3ccccc3)C2)cc1` (centres unmarked) [lqr-9-068], the IC50 was greater than 10000 nM.
`CN(C)C(=O)Nc1ccc(C2=NN(C(=O)c3ccc(Br)cc3)C(c3ccccc3)C2)cc1` (centres unmarked) [lqr-9-158] came in with an IC50 of 2390 nM.
`CC(C)COC(=O)Nc1ccc(C2=NN(C(=O)c3ccc(Br)cc3)C(c3ccccc3)C2)cc1` (centres unmarked) [lqr-9-155] yielded an IC50 of 184 nM.
In turn, `COC(=O)Nc1ccc(C2=NN(C(=O)c3ccc(C)cc3)C(c3ccco3)C2)cc1` (centres unmarked) [lqr-8-235] yielded a half-maximal inhibitory concentration (IC50) of 1800 nM. Compared with the last compound, the IC50 is about 9.8-fold higher.
For `CC(C)(C)OC(=O)Nc1cccc(C2=NN(C(=O)c3ccc(Br)cc3)C(c3ccccc3)C2)c1` (centres unmarked) [lqr-9-055], half-maximal inhibition (IC50) required 12000 nM.
In turn, `CC(C)(C)OC(=O)Nc1ccc(C2=NN(C(=O)c3ccc(Br)cc3)C(c3ccccc3)C2)cc1` (centres unmarked) [lqr-8-278] yielded an IC50 of 274 nM. Compared with the last compound, the IC50 is about 44-fold lower.
In the case of `O=C1OCCN1c1ccc(C2=NN(C(=O)c3ccc(Br)cc3)C(c3ccccc3)C2)cc1` (centres unmarked) [lqr-9-088] it was 5140 nM.
On to `CC(C)(C)OC(=O)Nc1ccc(C2=NN(C(=O)c3ccc(Br)cc3)C(c3ccncc3)C2)cc1` (centres unmarked) [lqr-9-046], for which the IC50 amounted to 3000 nM.
The compound `CC(C)(C)NC(=O)Nc1ccc(C2=NN(C(=O)c3ccc(Br)cc3)C(c3ccccc3)C2)cc1` (centres unmarked) [lqr-9-118] had an IC50 of 9100 nM.
On to `COC(=O)Nc1ccc(C2=NN(C(=O)c3ccc(Br)cc3)C(c3ccccc3)C2)cc1` (centres unmarked) [lqr-9-008], for which the IC50 is 10000 nM.
The compound `CC(C)(C)OC(=O)Nc1ccc(-c2cc(-c3ccccc3)[nH]n2)cc1` [lqr-9-012] yielded an IC50 greater than 10000 nM.
